Assays:
[1] = Affinity to Cl- in chloroform by extraction of Et4N+Cl- from water; type: binding; conditions: extraction of Et4N^+Cl^– from water into chloroform at 303 K; new compound or new data
Method: Measurement of affinities to Et4N+Cl- in chloroform through extraction from […]
This method is adapted from Clare et al..4 The Et4N+Cl- salt was obtained from Sigma Aldrich and dried under vacuum overnight prior to solution preparation using deionised water that had been passed through a Millipore filtration system. All host solutions were prepared using chloroform that had been deacidified by passage through a flash chromatography column containing basic alumina.
A solution of host in deacidified chloroform was combined with 10 mL of aqueous Et4N+Cl-guest solution in a sample tube (30 mL). Concentrations and volumes are specified in Table
S1. A magnetic stirring bar (2 cm) was added to the tube and the lower half was immersed in a water bath heated to 303 K, while the contents were stirred vigorously to achieve good mixing of the two phases. After 30 minutes, stirring was stopped and the two phases were allowed to separate. The majority of the aqueous phase was then removed using a pipette and the remaining organic phase was centrifuged for 10 minutes at 4000 rpm. The chloroform solution was then filtered through Whatman 1PS hydrophobic filter paper to remove any remaining aqueous phase. Solvent from the filtrate was then removed in vacuo and the solid was further dried under vacuum. The resulting solids from the extraction experiments were dissolved in acetone-d6 and the solutions were analysed with 1H NMR spectroscopy.
A value for the molar ratio (R) was determined by integrating the signal at δ = 3.5 ppm (CH2 of Et4N+Cl-) against one of the receptor signals.
The values for R obtained from the 1H NMR spectra were used to calculate values for the equilibrium extraction constants Ke:
Horg + Xaq− + Yaq+ ⇌HX−Yorg+ Ke = org […]
To convert the extraction constants Ke into association constants Ka it is necessary to obtain the distribution constants Kd for the substrates between aqueous and organic phases:
The Kd value for tetraethylammonium chloride partitioning between water and chloroform has been determined and reported previously to be 1.269 × 10-5 M-1.5
The binding constant Ka is then calculated from Ke and Kd:
H + X−Y+ ⇌ HX−Y+ K = org = e […]
When [G] > 100 mM, the amount of salt that migrates from the aqueous phase into the organic phase without assistance of the host has to be taken into account by correcting the measured […]
Table S1. Overview of the conditions and results from the extraction experiments Receptor [H] (mM) [G] (mM) Vorg (mL) Vaq (mL) Rmeasured Ka (M-1)

[2] = system: F508del-CFTR-YFP-FRT cells; assay: Anionophore anion transport in F508del-CFTR-YFP-FRT cells; type: cell-based, Fischer rat; conditions: for anion transport in control F508del-CFTR-YFP-FRT cells / additivity of anion transport to rescue of F508del-CFTR: 50 μM; for anion transport in control F508del-CFTR-YFP-FRT cells: cells grown at 37 °C; for additivity of anion transport to rescue of F508del-CFTR: 27 °C or lumacaftor rescue; for anion transport when added together with forskolin and ivacaftor: anionophore 50 μM, forskolin 10 μM, ivacaftor 1 μM
From the text: To learn whether anionophores are additive to small molecules that rescue disease-causing CFTR variants, we used FRT cells co-expressing F508del-CFTR, the predominant CF mutation and YFP-H148Q/I152L (F508del-CFTR-YFP-FRT cells).[28] To rescue the plasma membrane expression of F508del-CFTR, we used low temperature or the clinically-licensed CFTR corrector lumacaftor,[38],[39] while to increase its activity, we used the clinically-licensed CFTR potentiator ivacaftor.[40]
FRT cells stably expressing the halide sensor YFP-H148Q/I152L6 were generous gifts of AS Verkman (University of California, San Francisco), while CFBE41o- cells7 stably expressing YFP (YFP-CFBE cells) were a generous gift of LJV Galietta (Telethon Institute for Genetics and Medicine). YFP-FRT cells were cultured as described previously for FRT cells8 except that media contained 10% fetal bovine serum, 2 mM L-glutamine and the selection agent G418 (YFP-FRT cells, 0.5 mg ml-1; WT-CFTR-YFP-FRT cells, 0.75 mg ml-1) or zeocin […]
(F508del-CFTR-YFP-FRT cells, 0.5 mg ml-1). […]
U ml-1 penicillin and 100 mg ml-1 streptomycin. All cells were incubated at 37 °C in a humidified atmosphere with 5% CO2.
For fluorescence microplate reader studies, cells were seeded in 96-well plates and grown in culture media at 37 °C in a humidified atmosphere with 5% CO2 for 3 – 4 days until 90% confluent. To promote the plasma membrane expression of F508del-CFTR, prior to study F508del-YFP-FRT cells were either cultured at 27 °C for 24 h or treated with lumacaftor (3 µM) in YFP-FRT media containing 1% fetal bovine serum at 37 °C for 24 h. […]
Fluorescence plate reader assay […]
quenching of YFP fluorescence at 37 °C using a microplate reader following the method of Galietta et al..9 The microplate reader (model: FLUORstar Omega; BMG LABTECH Ltd., Aylesbury, UK) was equipped with a syringe pump and excitation (500 ± 10 nm) and emission (535 ± 15 nm) filters (Chroma Technology GmbH, Olching, Germany). After washing cells twice with PBS (composition (mM): 137 NaCl, 2.7 KCl, 8.1 Na2HPO4, 1.5 KH2PO4, 1 CaCl2 and 0.5 MgCl2, pH 7.40), cells were incubated with test anionophores (1 – 50 µM) or the vehicle (DMSO [0.1 – 0.5% v v-1]) in 40 µl of PBS for 10 – 120 minutes according to the experimental design. Other compounds, including forskolin, ivacaftor and channel inhibitors were added to […]
the PBS bathing cells 10 minutes prior to PBS iodide addition, whereas UTP was added to cells with the PBS iodide solution. Fluorescence was measured for 14 seconds; 2 seconds before and 12 seconds after injection of 110 µl PBS iodide solution (137 mM Cl- replaced by I-) into each well (to obtain a final concentration of I- of 100 mM).
We expressed cell fluorescence values (F) relative to the fluorescence value immediately before I- injection (F0), excluding the initial decrease, which likely represents the quenching of extracellular YFP released from cells and signal reduction accompanying the increase in solution volume bathing cells. To quantify anion transport by test anionophores, we determined the initial slope of the fluorescence decay following I - addition by fitting first order exponential functions to the last 12 seconds of each fluorescence recording. In each experim ent, n values represent the mean of two replicates and all treatments were tested at least three times using different microplates. […]
FRT cells was selected and the cells were perfused with (i) PBS for 5 minutes then (ii) PBS containing I- (10 mM) (made by preparing PBS with 127 mM NaCl to maintain osmolarity) for 5 minutes and finally (iii) PBS for 30 minutes to remove thoroughly I- from the perfusion chamber. YFP-FRT cells were repeatedly treated with I- (10 mM) and then washed with PBS […]
During all interventions, the rate of solution perfusion was 8 – 10 ml min-1; temperature was 37 °C and except for the first 15 minutes of PBS washing, no data were collected between cycles of I- perfusion and PBS […]
For cell fluorescence measurements, we used the Volocity (Improvision) data […]

## COCCOCCOC(=O)[C@]12CC[C@@H](NC(=O)Nc3ccc(C(F)(F)F)cc3)C[C@@H]1C[C@@H](NC(=O)Nc1ccc(C(F)(F)F)cc1)CC2 [Compound 9]
[1]
  K a to Cl^– in CHCl3: 1.4 × 10^8 M^–1

## COCCOCCOC(=O)[C@]12CC[C@@H](NC(=O)Nc3cc(C(F)(F)F)cc(C(F)(F)F)c3)C[C@@H]1C[C@@H](NC(=O)Nc1cc(C(F)(F)F)cc(C(F)(F)F)c1)CC2 [Compound 10]
[1]
  K a to Cl^– in CHCl3: 2.5 × 10^8 M^–1

## CCOC(=O)[C@]12CC[C@@H](NC(=S)Nc3ccc([N+](=O)[O-])cc3)C[C@@H]1C[C@@H](NC(=S)Nc1ccc([N+](=O)[O-])cc1)CC2 [Compound 12]
[2]
  anion transport in control F508del-CFTR-YFP-FRT cells: mediated anion transport
  additivity of anion transport to rescue of F508del-CFTR: additive
  anion transport when added together with forskolin and ivacaftor: increased further the amount of anion transport

## CCCCCCCCOC(=O)[C@]12CC[C@@H](NC(=S)Nc3ccc([N+](=O)[O-])cc3)C[C@@H]1C[C@@H](NC(=S)Nc1ccc([N+](=O)[O-])cc1)CC2 [Compound 13]
[1]
  K a to Cl^– in CHCl3: 1.5 × 10^9 M^–1

## CCOC(=O)[C@]12CC[C@@H](NC(=S)Nc3cc(C(F)(F)F)cc(C(F)(F)F)c3)C[C@@H]1C[C@@H](NC(=S)Nc1cc(C(F)(F)F)cc(C(F)(F)F)c1)CC2 [Compound 15]
[2]
  anion transport in control F508del-CFTR-YFP-FRT cells: mediated anion transport
  additivity of anion transport to rescue of F508del-CFTR: additive
  anion transport when added together with forskolin and ivacaftor: increased further the amount of anion transport

## FC(F)(F)c1ccc(NC(=S)NCCN(CCNC(=S)Nc2ccc(C(F)(F)F)cc2)CCNC(=S)Nc2ccc(C(F)(F)F)cc2)cc1 [Compound 18]
[1]
  K a to Cl^– in CHCl3: 1.5 × 10^7 ^b M^–1

## FC(F)(F)c1cc(NC(=S)NCCN(CCNC(=S)Nc2cc(C(F)(F)F)cc(C(F)(F)F)c2)CCNC(=S)Nc2cc(C(F)(F)F)cc(C(F)(F)F)c2)cc(C(F)(F)F)c1 [Compound 19]
[1]
  K a to Cl^– in CHCl3: 1.5 × 10^9 ^b M^–1
[2]
  anion transport in control F508del-CFTR-YFP-FRT cells: mediated anion transport
  additivity of anion transport to rescue of F508del-CFTR: additive
  anion transport when added together with forskolin and ivacaftor: increased further the amount of anion transport
